Results as given in patent US6737383B1, “Herbicidal oxadiazolidines” (priority 1999, dated 2004).

Tests used:
purple nutsedge = assay: Test B pre/postemergence purple nutsedge; assay type: in vivo, Cyperus rotundus
Method in brief: (§1)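 Response is a visual 0-to-10 score relative to untreated plants, where 0 means no effect and 10 means complete control, taken twelve to sixteen days after application. Treatments went onto soil at planting and onto foliage of 1- to 4-leaf plants, using a surfactant-containing non-phytotoxic solvent.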

surinam grass = assay: Test B pre/postemergence surinam grass; assay type: in vivo, Brachiaria decumbens
Method in brief: as §1

bamyardgrass = assay: Test B flood test barnyardgrass; assay type: in vivo, Echinochloa crus-galli; conditions: for Plant response rating, Barnyardgrass: scale 0 to 10, 0 is no effect, 10 is complete control; for Barnyardgrass plant response rating: scale of 0 to 10 where 0 is no effect and 10 is complete control
Method in brief: (§2)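 Each value is a visual injury score relative to controls, with 10 meaning complete control and 0 no effect. Evaluation took place twelve to sixteen days after the 2-leaf-stage plants were treated and kept in the greenhouse.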

rice = assay: Test B flood test rice; assay type: in vivo, Oryza sativa; conditions: for Rice plant response rating: scale of 0 to 10 where 0 is no effect and 10 is complete control
Method in brief: as §2

crabgrass = assay: Test B pre/postemergence crabgrass; assay type: in vivo, Digitaria sanguinalis
Method in brief: as §1

velvetleaf = assay: Test B pre/postemergence velvetleaf; assay type: in vivo, Abutilon theophrasti
Method in brief: as §1

giant foxtail = assay: Test B pre/postemergence giant foxtail; assay type: in vivo, Setaria faberii
Method in brief: as §1

wheat = assay: Test B pre/postemergence wheat; assay type: in vivo, Triticum aestivum
Method in brief: as §1

sugar beet = assay: Test B pre/postemergence sugar beet; assay type: in vivo, Beta vulgaris
Method in brief: as §1

blackgrass = assay: Test B pre/postemergence blackgrass; assay type: in vivo, Alopecurus myosuroides
Method in brief: as §1

morningglory = assay: Test B pre/postemergence morningglory; assay type: in vivo, Ipomoea hederacea
Method in brief: as §1

rape = assay: Test B pre/postemergence rape; assay type: in vivo, Brassica napus
Method in brief: as §1

cocklebur = assay: Test B pre/postemergence cocklebur; assay type: in vivo, Xanthium strumarium
Method in brief: as §1

wild oat = assay: Test B pre/postemergence wild oat; assay type: in vivo, Avena fatua
Method in brief: as §1

pigweed = assay: Test B pre/postemergence pigweed; assay type: in vivo, Amaranthus retroflexus
Method in brief: as §1

smallflower flatsedge = assay: Test B flood test smallflower flatsedge; assay type: in vivo, Cyperus difformis; conditions: for S. Flatsedge plant response rating: scale of 0 to 10 where 0 is no effect and 10 is complete control
Method in brief: as §2

[1] = Postemergence, Rate 250 g/ha, scale 0 to 10, 0 is no effect, 10 is complete control
[2] = Postemergence, Rate 500 g/ha, scale of 0 to 10 where 0 is no effect and 10 is complete control
[3] = Preemergence, Rate 62 g/ha, scale 0 to 10 (0 no effect, 10 complete control)
[4] = Preemergence, Rate 125 g/ha, scale of 0 to 10 where 0 is no effect and 10 is complete control
[5] = Preemergence, Rate 250 g/ha, scale 0 to 10, 0 is no effect, 10 is complete control
[6] = Preemergence, Rate 500 g/ha, scale 0 to 10, 0 is no effect, 10 is complete control
[7] = Rate 62 g/ha, Postemergence, scale of 0 to 10 where 0 is no effect and 10 is complete control
[8] = Postemergence, Rate 125 g/ha, scale 0 to 10, 0 is no effect, 10 is complete control
[9] = Preemergence, Rate 250 g/ha, scale of 0 to 10 where 0 is no effect and 10 is complete control
[10] = Postemergence section (flood test species), Rate 500 g/ha
[11] = Rate 62 g/ha, Postemergence (flood test species)
[12] = flood test species, listed under Postemergence, Rate 250 g/ha, scale 0 to 10, 0 is no effect, 10 is complete control

CC(=O)C(C)n1c(=O)on(C(=O)N(c2ccc(F)cc2)C(C)C)c1=O (stereo not shown) [Compound 400]
0: Plant response rating, Nutsedge (purple nutsedge; [1]) | Nutsedge plant response rating (purple nutsedge; [2]) | Plant response rating, Nutsedge (purple nutsedge; [3]) | Plant response rating, Nutsedge (purple nutsedge; [4]) | Nutsedge plant response rating (purple nutsedge; [5]) | Nutsedge plant response rating (purple nutsedge; [6]) | Nutsedge plant response rating (purple nutsedge; [7]) | Plant response rating, B. signalgrass (surinam grass; [3]) | Plant response rating, B. signalgrass (surinam grass; [4]) | B. signalgrass plant response rating (surinam grass; [7]) | Plant response rating, Barnyardgrass (bamyardgrass; Postemergence (flood test), Rate 125 g/ha) | Barnyardgrass plant response rating (bamyardgrass; [10]) | Barnyardgrass plant response rating (bamyardgrass; [11]) | Plant response rating, Barnyardgrass (bamyardgrass; flood test species, listed under Postemergence, Rate 250 g/ha) | Rice plant response rating (rice; [10]) | Rice plant response rating (rice; [11]) | Plant response rating, Rice (rice; [12]) | Crabgrass plant response rating (crabgrass; [7]) | Plant response rating, Velvetleaf (velvetleaf; [1]) | Velvetleaf plant response rating (velvetleaf; [2]) | Plant response rating, Velvetleaf (velvetleaf; [3]) | Plant response rating, Velvetleaf (velvetleaf; [4]) | Velvetleaf plant response rating (velvetleaf; [5]) | Velvetleaf plant response rating (velvetleaf; [7]) | Wheat plant response rating (wheat; [2]) | Plant response rating, Wheat (wheat; [3]) | Plant response rating, Wheat (wheat; [4]) | Wheat plant response rating (wheat; [5]) | Wheat plant response rating (wheat; [6]) | Wheat plant response rating (wheat; [7]) | Plant response rating, Sugarbeets (sugar beet; [1]) | Sugarbeets plant response rating (sugar beet; [2]) | Plant response rating, Sugarbeets (sugar beet; [3]) | Plant response rating, Sugarbeets (sugar beet; [4]) | Sugarbeets plant response rating (sugar beet; [7]) | Plant response rating, Blackgrass (blackgrass; [3]) | Plant response rating, Blackgrass (blackgrass; [4]) | Blackgrass plant response rating (blackgrass; [9]) | Blackgrass plant response rating (blackgrass; [6]) | Blackgrass plant response rating (blackgrass; [7]) | Plant response rating, Morningglory (morningglory; [3]) | Plant response rating, Morningglory (morningglory; [4]) | Morningglory plant response rating (morningglory; [5]) | Morningglory plant response rating (morningglory; [6]) | Morningglory plant response rating (morningglory; [7]) | Plant response rating, Rape (rape; [1]) | Rape plant response rating (rape; [2]) | Plant response rating, Rape (rape; [3]) | Plant response rating, Rape (rape; [4]) | Rape plant response rating (rape; [5]) | Rape plant response rating (rape; [6]) | Rape plant response rating (rape; [7]) | Plant response rating, Cocklebur (cocklebur; [8]) | Plant response rating, Cocklebur (cocklebur; [1]) | Cocklebur plant response rating (cocklebur; [2]) | Plant response rating, Cocklebur (cocklebur; [3]) | Plant response rating, Cocklebur (cocklebur; [4]) | Cocklebur plant response rating (cocklebur; [5]) | Cocklebur plant response rating (cocklebur; [6]) | Cocklebur plant response rating (cocklebur; [7]) | Wild oats plant response rating (wild oat; [2]) | Plant response rating, Wild oats (wild oat; [3]) | Plant response rating, Wild oats (wild oat; [4]) | Wild oats plant response rating (wild oat; [5]) | Wild oats plant response rating (wild oat; [6]) | Wild oats plant response rating (wild oat; [7]) | Plant response rating, Redroot pigweed (pigweed; [1]) | Redroot pigweed plant response rating (pigweed; [2]) | Redroot pigweed plant response rating (pigweed; [7]) | S. Flatsedge plant response rating (smallflower flatsedge; [10]) | S. Flatsedge plant response rating (smallflower flatsedge; [11]) | Plant response rating, S. Flatsedge (smallflower flatsedge; [12])
4: B. signalgrass plant response rating (surinam grass; [2]) | B. signalgrass plant response rating (surinam grass; Preemergence, Rate 500 g/ha, scale of 0 to 10 where 0 is no effect and 10 is complete control) | Sugarbeets plant response rating (sugar beet; [6]) | Plant response rating, Blackgrass (blackgrass; [8]) | Plant response rating, Redroot pigweed (pigweed; [4])
3: Plant response rating, B. signalgrass (surinam grass; [1]) | Plant response rating, Morningglory (morningglory; [1]) | Plant response rating, Redroot pigweed (pigweed; [3])
2: Plant response rating, B. signalgrass (surinam grass; [8]) | B. signalgrass plant response rating (surinam grass; [9]) | Velvetleaf plant response rating (velvetleaf; [6]) | Sugarbeets plant response rating (sugar beet; [5])
6: Plant response rating, Crabgrass (crabgrass; [1]) | Plant response rating, Crabgrass (crabgrass; [3]) | Morningglory plant response rating (morningglory; [2]) | Redroot pigweed plant response rating (pigweed; [5]) | Redroot pigweed plant response rating (pigweed; [6])
10: Crabgrass plant response rating (crabgrass; [5]) | Crabgrass plant response rating (crabgrass; [6]) | Giant foxtail plant response rating (giant foxtail; [5]) | Giant foxtail plant response rating (giant foxtail; [6])
8: Plant response rating, Giant foxtail (giant foxtail; [8]) | Plant response rating, Blackgrass (blackgrass; [1]) | Blackgrass plant response rating (blackgrass; [2])
5: Giant foxtail plant response rating (giant foxtail; [7])
9: Crabgrass plant response rating (crabgrass; [2]) | Plant response rating, Crabgrass (crabgrass; [4]) | Plant response rating, Giant foxtail (giant foxtail; [1]) | Giant foxtail plant response rating (giant foxtail; [2]) | Plant response rating, Giant foxtail (giant foxtail; [3]) | Plant response rating, Giant foxtail (giant foxtail; [4])
